The values that follow come from patent US8012956B2, “Tropane compounds” (Exelixis, Inc., priority 2007, dated 2011).

The IC50 is the midpoint of a concentration-inhibition curve.

This experiment has as its target HSP90 (Homo sapiens, UniProt P07900). Nature of the experiment: HSP90 inhibition (HSP90 IC50). The format is biochemical.
With `CC[C@@H](C)Nc1cc(C(=O)NC2CC3CCC(C2)N3c2ccc(C(=O)C3CC3)cn2)c(OC)cc1C(N)=O` (stereo partly drawn) [N-{8-[5-(cyclopropylcarbonyl)pyridin-2-yl]-8-azabicyclo[3.2.1]oct-3-endo-yl}-2-(methyloxy)-5-{[(1R)-1-methylpropyl]amino}benzene-1,4-dicarboxamide], the IC50 was < 500 nM.

For `CCc1cc(C(N)=O)c(N[C@H](C)CC)cc1C(=O)NC1CC2CCC(C1)N2c1ccc(C(=O)C2CC2)cn1` (stereo partly drawn) [N-{8-[5-(cyclopropylcarbonyl)pyridin-2-yl]-8-azabicyclo[3.2.1]oct-3-endo-yl}-2-ethyl-5-{[(1R)-1-methylpropyl]amino}benzene-1,4-dicarboxamide], the concentration for half-maximal inhibition (IC50) was < 500 nM.

As to `COc1cc(C(=O)N[C@H]2C[C@H]3CC[C@@H](C2)N3c2ccc(C(=O)C3CC3)cn2)c(C)cc1C(N)=O` [N-{8-[5-(cyclopropylcarbonyl)pyridin-2-yl]-8-azabicyclo[3.2.1]oct-3-endo-yl}-2-methyl-5-(methyloxy)benzene-1,4-dicarboxamide], the half-inhibitory concentration (IC50) was < 500 nM.

With `CCCNc1cc(C(=O)N[C@H]2C[C@H]3CC[C@@H](C2)N3c2ccc(C(=O)C3CC3)cn2)c(C)cc1C(N)=O` [N-{8-[5-(cyclopropylcarbonyl)pyridin-2-yl]-8-azabicyclo[3.2.1]oct-3-endo-yl}-2-methyl-5-(propylamino)benzene-1,4-dicarboxamide], the concentration for half-maximal inhibition (IC50) is < 500 nM.

`Cc1cc(C(N)=O)c(NC(C)C)cc1C(=O)N[C@H]1C[C@H]2CC[C@@H](C1)N2c1ccc(C(=O)C2CC2)cn1` [N-{8-[5-(cyclopropylcarbonyl)pyridin-2-yl]-8-azabicyclo[3.2.1]oct-3-endo-yl}-2-methyl-5-[(1-methylethyl)amino]benzene-1,4-dicarboxamide]: the IC50 is < 500 nM.

In the case of `Cc1cc(C(N)=O)c(NC(C)CC(F)(F)F)cc1C(=O)N[C@H]1C[C@H]2CC[C@@H](C1)N2c1ccc(C(=O)C2CC2)cn1` (stereo partly drawn) [N-{8-[5-(cyclopropylcarbonyl)pyridin-2-yl]-8-azabicyclo[3.2.1]oct-3-endo-yl}-2-methyl-5-[(3,3,3-trifluoro-1-methylpropyl)amino]benzene-1,4-dicarboxamide], the 50% inhibitory concentration (IC50) was < 500 nM.

Take `Cc1cc(C(N)=O)c(NCCC(F)(F)F)cc1C(=O)N[C@H]1C[C@H]2CC[C@@H](C1)N2c1ccc(C(=O)C2CC2)cn1` [N-{8-[5-(cyclopropylcarbonyl)pyridin-2-yl]-8-azabicyclo[3.2.1]oct-3-endo-yl}-2-methyl-5-[(3,3,3-trifluoropropyl)amino]benzene-1,4-dicarboxamide]: the IC50 was < 500 nM.

On to `Cc1cc(C(N)=O)c(N[C@H]2CCOC2)cc1C(=O)NC1CC2CCC(C1)N2c1ccc(C(=O)C2CC2)cn1` (stereo partly drawn) [N-{8-[5-(cyclopropylcarbonyl)pyridin-2-yl]-8-azabicyclo[3.2.1]oct-3-endo-yl}-2-methyl-5-[(3S)-tetrahydrofuran-3-ylamino]benzene-1,4-dicarboxamide], for which the concentration for half-maximal inhibition (IC50) was < 500 nM.

On to `Cc1cc(C(N)=O)c(NC(C)C2(C)CC2)cc1C(=O)N[C@H]1C[C@H]2CC[C@@H](C1)N2c1ccc(C(=O)C2CC2)cn1` (stereo partly drawn) [N-{8-[5-(cyclopropylcarbonyl)pyridin-2-yl]-8-azabicyclo[3.2.1]oct-3-endo-yl}-2-methyl-5-{[1-(1-methylcyclopropyl)ethyl]amino}benzene-1,4-dicarboxamide], for which the half-maximal inhibitory concentration (IC50) is < 500 nM.

In turn, `COCCOc1cc(C(=O)N[C@H]2C[C@H]3CC[C@@H](C2)N3c2ccc(C(=O)C3CC3)cn2)c(C)cc1C(N)=O` [N-{8-[5-(cyclopropylcarbonyl)pyridin-2-yl]-8-azabicyclo[3.2.1]oct-3-endo-yl}-2-methyl-5-{[2-(methyloxy)ethyl]oxy}benzene-1,4-dicarboxamide] registered a 50% inhibitory concentration (IC50) of 500 to 999 nM.

As for `Cc1cc(C(N)=O)c(NC(C(C)C)C(C)C)cc1C(=O)N[C@H]1C[C@H]2CC[C@@H](C1)N2c1ccc(C(=O)C2CC2)cn1` [N-{8-[5-(cyclopropylcarbonyl)pyridin-2-yl]-8-azabicyclo[3.2.1]oct-3-endo-yl}-2-methyl-5-{[2-methyl-1-(1-methylethyl)propyl]amino}benzene-1,4-dicarboxamide], the IC50 was < 500 nM.

With `Cc1cc(C(N)=O)c(NC(C(C)C)C(F)(F)F)cc1C(=O)N[C@H]1C[C@H]2CC[C@@H](C1)N2c1ccc(C(=O)C2CC2)cn1` (stereo partly drawn) [N-{8-[5-(cyclopropylcarbonyl)pyridin-2-yl]-8-azabicyclo[3.2.1]oct-3-endo-yl}-2-methyl-5-{[2-methyl-1-(trifluoromethyl)propyl]amino}benzene-1,4-dicarboxamide], the IC50 was < 500 nM.

In the case of `Cc1cc(C(N)=O)c(N[C@H](C)C(C)(C)C)cc1C(=O)NC1CC2CCC(C1)N2c1ccc(C(=O)C2CC2)cn1` (stereo partly drawn) [N-{8-[5-(cyclopropylcarbonyl)pyridin-2-yl]-8-azabicyclo[3.2.1]oct-3-endo-yl}-2-methyl-5-{[(1R)-1,2,2-trimethylpropyl]amino}benzene-1,4-dicarboxamide], the half-inhibitory concentration (IC50) was < 500 nM.

`CC[C@@H](C)Nc1cc(C(=O)NC2CC3CCC(C2)N3c2ccc(C(=O)C3CC3)cn2)c(C)cc1C(N)=O` (stereo partly drawn) [N-{8-[5-(cyclopropylcarbonyl)pyridin-2-yl]-8-azabicyclo[3.2.1]oct-3-endo-yl}-2-methyl-5-{[(1R)-1-methylpropyl]amino}benzene-1,4-dicarboxamide]: the IC50 was < 500 nM.

In the case of `Cc1cc(C(N)=O)c(NC(C)(C)C)cc1C(=O)N[C@H]1C[C@H]2CC[C@@H](C1)N2c1ccc(C(=O)C2CC2)cn1` [N-{8-[5-(cyclopropylcarbonyl)pyridin-2-yl]-8-azabicyclo[3.2.1]oct-3-endo-yl}-5-[(1,1-dimethylethyl)amino]-2-methylbenzene-1,4-dicarboxamide], the concentration for half-maximal inhibition (IC50) is < 500 nM.

For `CCC(Nc1cc(C(=O)N[C@H]2C[C@H]3CC[C@@H](C2)N3c2ccc(C(=O)C3CC3)cn2)c(C)cc1C(N)=O)C(C)C` (stereo partly drawn) [N-{8-[5-(cyclopropylcarbonyl)pyridin-2-yl]-8-azabicyclo[3.2.1]oct-3-endo-yl}-5-[(1-ethyl-2-methylpropyl)amino]-2-methylbenzene-1,4-dicarboxamide], the IC50 is < 500 nM.

Turning to `CCC(CC)Nc1cc(C(=O)N[C@H]2C[C@H]3CC[C@@H](C2)N3c2ccc(C(=O)C3CC3)cn2)c(F)cc1C(N)=O` [N-{8-[5-(cyclopropylcarbonyl)pyridin-2-yl]-8-azabicyclo[3.2.1]oct-3-endo-yl}-5-[(1-ethylpropyl)amino]-2-fluorobenzene-1,4-dicarboxamide], the IC50 is < 500 nM.

For `Cc1cc(C(N)=O)c(NC(C)C(F)F)cc1C(=O)N[C@H]1C[C@H]2CC[C@@H](C1)N2c1ccc(C(=O)C2CC2)cn1` (stereo partly drawn) [N-{8-[5-(cyclopropylcarbonyl)pyridin-2-yl]-8-azabicyclo[3.2.1]oct-3-endo-yl}-5-[(2,2-difluoro-1-methylethyl)amino]-2-methylbenzene-1,4-dicarboxamide], the IC50 was < 500 nM.

As for `Cc1cc(C(N)=O)c(NC(C2CC2)C2CC2)cc1C(=O)NC1CC2CCC(C1)N2c1ccc(C(=O)C2CC2)cn1` (stereo not drawn) [N-{8-[5-(cyclopropylcarbonyl)pyridin-2-yl]-8-azabicyclo[3.2.1]oct-3-endo-yl}-5-[(dicyclopropylmethyl)amino]-2-methylbenzene-1,4-dicarboxamide], the IC50 is < 500 nM.

`CCc1cc(C(=O)N[C@H]2C[C@H]3CC[C@@H](C2)N3c2ccc(C(=O)C3CC3)cn2)c(C)cc1C(N)=O` [N-{8-[5-(cyclopropylcarbonyl)pyridin-2-yl]-8-azabicyclo[3.2.1]oct-3-endo-yl}-5-ethyl-2-methylbenzene-1,4-dicarboxamide]: the IC50 was < 500 nM.

Consider `Cc1cc(C(N)=O)c(NC(CF)CF)cc1C(=O)N[C@H]1C[C@H]2CC[C@@H](C1)N2c1ccc(C(=O)C2CC2)cn1` [N-{8-[5-(cyclopropylcarbonyl)pyridin-2-yl]-8-azabicyclo[3.2.1]oct-3-endo-yl}-5-{[2-fluoro-1-(fluoromethyl)ethyl]amino}-2-methylbenzene-1,4-dicarboxamide], for which the IC50 is < 500 nM.

With `Cc1cc(C(N)=O)c(N[C@H](C)C(C)C)cc1C(=O)NC1CC2CCC(C1)N2c1ccc(C(=O)C2CC2)cn1` (stereo partly drawn) [N-{8-[5-(cyclopropylcarbonyl)pyridin-2-yl]-8-azabicyclo[3.2.1]oct-3-endo-yl}-5-{[(1R)-1,2-dimethylpropyl]amino}-2-methylbenzene-1,4-dicarboxamide], the concentration for half-maximal inhibition (IC50) was < 500 nM.

In the case of `CC[C@@H](C)Nc1cc(C(=O)NC2CC3CCC(C2)N3c2ccc(C(=O)C3CC3)cn2)c(C(F)(F)F)cc1C(N)=O` (stereo partly drawn) [N-{8-[5-(cyclopropylcarbonyl)pyridin-2-yl]-8-azabicyclo[3.2.1]oct-3-endo-yl}-5-{[(1R)-1-methylpropyl]amino}-2-(trifluoromethyl)benzene-1,4-dicarboxamide], the 50% inhibitory concentration (IC50) was < 500 nM.

Take `NC(=O)c1ccc(C(=O)N[C@H]2C[C@H]3CC[C@@H](C2)N3c2ccc(C(=O)C3CC3)cn2)s1` [N-{8-[5-(cyclopropylcarbonyl)pyridin-2-yl]-8-azabicyclo[3.2.1]oct-3-endo-yl}thiophene-2.5-dicarboxamide]: the concentration for half-maximal inhibition (IC50) lay within 1000 to 2000 nM.

On to `Cc1cc(C(N)=O)c(NCC(C)C)cc1C(=O)N[C@H]1C[C@H]2CC[C@@H](C1)N2c1ccc(C(=O)C2CC2)cn1` [N-{8-[5-(cyclopropylcarbonyl)pyridine-2-yl]-8-azabicyclo[3.2.1]oct-3-endo-yl}-2-methyl-5-[(2-methylpropyl)amino]benzene-1,4-dicarboxamide], for which the 50% inhibitory concentration (IC50) is < 500 nM.

Consider `CCC(Nc1cc(C(=O)N[C@H]2C[C@H]3CC[C@@H](C2)N3c2ccc(C(=O)C3CC3)cn2)c(C)cc1C(N)=O)C(F)(F)F` (stereo partly drawn) [N-{8-[5-(cyclopropylcarbonyl)pyridine-2-yl]-8-azabicyclo[3.2.1]oct-3-endo-yl}-2-methyl-5-{[1-(trifluoromethyl)propyl]amino}benzene-1,4-dicarboxamide], for which the IC50 was < 500 nM.

`CC[C@H](C)Nc1cc(C(=O)NC2CC3CCC(C2)N3c2ccc(C(=O)C3CC3)cn2)c(C)cc1C(N)=O` (stereo partly drawn) [N-{8-[5-(cyclopropylcarbonyl)pyridine-2-yl]-8-azabicyclo[3.2.1]oct-3-endo-yl}-2-methyl-5-{[(1S)-1-methylpropyl]amino}benzene-1,4-dicarboxamide]: the IC50 was < 500 nM.
